Counter-ions that a name gives are not always drawn.
How the values were obtained:
CB1 receptor [1] = target: T1, CB1 receptor (Mus musculus, UniProt P47746); assay: Mouse electrically-stimulated isolated vas deferens bioassay (MVD); format: cell-based; settings: decrease of electrically evoked twitch force; for inhibition at 1 µM: read-out: CB1 (MVD) % inh at 1.0 μM
T1 construct: Mouse vasa deferentia were dissected with capsular connective tissue intact and set up in 20 ml organ baths; from tissue; host or cells: mouse (Swiss white) isolated vas deferens
T1 sequence (P47746 whole entry): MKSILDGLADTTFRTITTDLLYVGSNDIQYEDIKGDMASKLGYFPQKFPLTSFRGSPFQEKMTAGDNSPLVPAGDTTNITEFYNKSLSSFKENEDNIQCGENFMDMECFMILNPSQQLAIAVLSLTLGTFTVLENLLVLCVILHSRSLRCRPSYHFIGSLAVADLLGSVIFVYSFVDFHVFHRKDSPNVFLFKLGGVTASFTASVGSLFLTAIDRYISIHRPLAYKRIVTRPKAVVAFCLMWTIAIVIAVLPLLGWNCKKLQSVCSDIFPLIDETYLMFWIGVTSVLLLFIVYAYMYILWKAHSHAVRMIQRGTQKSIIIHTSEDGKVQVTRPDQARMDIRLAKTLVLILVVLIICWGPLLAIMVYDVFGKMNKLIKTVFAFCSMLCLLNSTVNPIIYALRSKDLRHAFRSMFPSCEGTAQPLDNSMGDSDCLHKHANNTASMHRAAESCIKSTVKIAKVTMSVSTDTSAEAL
Procedure: Functional activity of the compounds was assayed using the mouse electrically-stimulated vas deferens bioassay, a measure of CB1 receptor function (24,25). […] CB2 functionality may be investigated using assays known to those skilled in the art; for example those described in U.S. Pat. No. 6,013,648.
Swiss white mice (35-40 g) were killed by exposure to 80% CO2 in O2 and exsanguination. Mouse vasa deferentia were dissected with capsular connective tissue intact and set up in 20 ml organ baths at 37° C. in Mg^2+-free physiological salt solution. The upper (epididymal) end was attached to an isometric force transducer (Grass FTO3C) and the lower (prostatic) end tied to a fixed support between two parallel platinum field electrodes (5 mm apart, 5 mm long). The tissue was initially stretched by 0.5 g force and allowed to equilibrate 10 min. The tissues were stimulated (Grass S88 stimulator) to contract using trains of electrical field stimulation of 3 pulses (4 Hz), 0.5 ms duration, 100 V (80% maximal voltage) every 20 s for 10 min. This electrical stimulation period was applied before and after both antagonist and agonist addition. Output from the transducer amplifier was recorded on a flat bed recorder (Gould BS 272, Cleveland, Ohio, U.S.A.). All drugs were dissolved in dimethyl sulfoxide (DMSO; Sigma, St Louis, Mo., U.S.A.) and allowed to equilibrate with the tissue for 30 min before the responses to field stimulation were assessed. Drug effects were measured as the percentage decrease of the pre-drug twitch force.

CB1 receptor [2] = target: T2, CB1 receptor (Rattus norvegicus, UniProt P20272); assay: Radioligand binding assay, rat cerebellum membranes
T2 construct: the cerebellum was dissected away from the rest of the brain, weighed and homogenised; from tissue; host or cells: Sprague Dawley rat cerebellum membranes
T2 sequence (P20272 whole entry): as the sequence (P47746 whole entry) above, with D95E counted along it
Procedure: (§1) The affinity of compounds at cannabinoid receptors is routinely assessed using ligand binding assays known to those skilled in the art. Radioligand binding assays were conducted using rat cerebellum or rat spleen. The cerebellum of the rat is known to express predominantly, if not exclusively, the CB1 receptor subtype (20,21). Thus, binding constants obtained from these studies are characterised by a single affinity value, as only one receptor type is labelled. […] In contrast, biphasic binding curves in the spleen characterised by two affinity constants represent the profile of compounds showing selectivity for one receptor subtype over another. In order to determine the order of selectivity, the high and low affinity values obtained for these compounds in the spleen binding assays were compared to the single affinity estimates obtained for the cerebellum (CB1) assays.
Sprague Dawley rats of either sex (200-300 g) were killed by gassing with 80% CO2 in O2 and decapitation, and the entire brain excised rapidly and placed in ice-cold Tris-HCl buffer (Tris 50 mM, MgCl2 3 mM, EGTA 0.2 mM, pH to 7.4 with HCl). On ice, the cerebellum was dissected away from the rest of the brain, weighed and homogenised (PT-DA 1205/2EC Polytron Aggregate; Kinematica, Luzernerstrasse Switzland) in 10 volumes of ice-cold Tris-HCl buffer. The homogenate was then made up to 20 volumes and centrifuged (Model J2-M1, Beckman, Fullerton, Calif., U.S.A.) at […] for 15 min at 4° C.). Subsequently, the supernatant was discarded, the pellet resuspended in 20 volumes of buffer and centrifuged as before. The resulting pellet was then resuspended in 20 volumes of buffer and assayed for protein content using the method of Bradford (Bradford, 1976) in a Novaspec II spectrophotometer (Pharmacia Biotech; with bovine serum albumin (BSA; Hömosafe BSA, c/o ‘ScimaR’ Templestowe, Australia) as the standard. The homogenate was then recentrifuged and the final pellet resuspended in Tris-HCl buffer at a protein concentration of 5 mg/ml and stored in 500 μl aliquots at −80° C. until used in the binding assay.
(§2) Ligand binding assays were performed in polypropylene tubes in a total volume of 1 ml containing Tris-HCl buffer, a final concentration of 1 mg/ml BSA, and varying concentrations of drugs. Tubes contained 30 μg of membrane protein and incubation was started by the addition of 100 μl of either 0.5 nM [^3H]SR141716A or 0.2 nM [^3H]WIN 55,212-2. Experiments were carried out in triplicate at 30° C. for 90 min with non-specific binding being defined as radioligand binding in the presence of 1 μM unlabelled WIN 55,212-2. Incubations were terminated by rapid filtration with a M-24 Cell Harvester (Brandel; Gaithersburg, Md., U.S.A.) using ice-cold Tris-HCl buffer containing 0.5 mg/ml BSA. Filters (Wattman GF/B) were soaked for 2 h prior to filtering in a solution of Tris-HCl buffer containing 3 mg/ml BSA and 0.5% w/w polyethyleneimine (PEI). Filters were left to dry thoroughly before placement into scintillation vials with 5 ml of scintillation cocktail (Ultima Gold LSC-cocktail; Packard Bioscience, Meriden, Conn., U.S.A.) being added. Vials were left to stand overnight before the radioactivity was determined using a Model 1409 DSA Liquid Scintillation counter (EG&E Wallac, Gaithersburg, Md., U.S.A.).
(§3) The resulting radioligand binding curves were analyzed by nonlinear regression using the program PRISM 3.0 (GraphPad Software, San Diego, Calif.) in order to derive ligand affinity estimates for the cannabinoid receptor(s).

CB2 receptor = target: T3, CB2 receptor (Rattus norvegicus, UniProt Q9QZN9); assay: Radioligand binding assay, rat spleen membranes
T3 sequence (Q9QZN9 1-343 limits assumed): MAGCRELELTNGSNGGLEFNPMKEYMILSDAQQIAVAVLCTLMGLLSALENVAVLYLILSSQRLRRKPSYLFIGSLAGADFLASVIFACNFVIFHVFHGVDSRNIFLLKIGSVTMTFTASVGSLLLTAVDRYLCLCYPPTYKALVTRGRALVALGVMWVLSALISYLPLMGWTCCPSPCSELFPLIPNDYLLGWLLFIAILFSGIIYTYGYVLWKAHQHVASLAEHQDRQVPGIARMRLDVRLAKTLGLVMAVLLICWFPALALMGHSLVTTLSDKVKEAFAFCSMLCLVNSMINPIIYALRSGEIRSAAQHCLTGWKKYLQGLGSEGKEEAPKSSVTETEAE
Procedure: as §1
Sprague Dawley rats (200-300 g) were killed by gassing with 80% CO2 in O2 and decapitation and the spleen excised rapidly and placed in ice-cold Tris-HCl buffer (Tris 50 mM, MgCl2 3 mM, EGTA 0.2 mM, pH 7.4). The spleen was weighed and diced using a scalpel before homogenisation in 10 volumes of Tris-HCl buffer. The homogenate was then made up to 20 volumes and centrifuged (12,600 g, 5 min, 4° C.), the supernatant was retained and centrifuged (23,800 g, 20 min, 4° C.). The pellet was resuspended in 10 volumes of buffer and assayed for protein content using the method of Bradford (Bradford, 1976) with BSA as the standard. The homogenate was then recentrifuged and the final pellet resuspended in Tris-HCl buffer at a protein concentration of 5 mg/ml and stored in 500 μl aliquots at −80° C. until used for the binding assay.
as §2, §3

SMILES	inhibition at 1 µM (CB1 receptor [1]) [%]	IC50 (CB1 receptor [2]) [nM]	IC50 (CB2 receptor) [nM]	also measured
c1ccc(Cc2noc(-c3cn(CCN4CCCC4)c4ccccc34)n2)cc1 (as salt: tartrate) [Compound 1, 3-(3-Benzyl-[1,2,4]-oxadiazol-5-yl)-1-[2-(pyrrolidin-1-yl)ethyl]-1H-indole]	–	–	–	melting point: 59 to 60 °C
CCCCC/C=C\C/C=C\C/C=C\C/C=C\CCCC(=O)NCCO [Anandamide, reference compound]	84	–	–	–
c1ccc(Cc2noc(-c3cn(CCN4CCOCC4)c4ccccc34)n2)cc1 [Compound 2, 3-(3-Benzyl-[1,2,4]-oxadiazol-5-yl)-1-[2-(morpholin-4-yl)ethyl]-1H-indole]	96	1000	1000	–
c1ccc(-c2noc(-c3cn(CCN4CCOCC4)c4ccccc34)n2)cc1 [Compound 3, 3-(3-Phenyl-[1,2,4]-oxadiazol-5-yl)-1-[2-(morpholin-4-yl)ethyl]-1H-indole]	83	1000	1000	melting point: 144 to 146 °C
c1csc(Cc2noc(-c3cn(CCN4CCOCC4)c4ccccc34)n2)c1 [Compound 4, 1-[2-(Morpholin-4-yl)ethyl]-3-(3-thien-2-ylmethyl-[1,2,4]oxadiazol-5-yl)-1H-indole]	81	100	–	–
c1ccc(Cc2noc(-c3cn(CCN4CCCCC4)c4ccccc34)n2)cc1 [Compound 5, 3-(3-Benzyl-[1,2,4]oxadiazol-5-yl)-1-[2-(piperidin-1-yl)ethyl]-1H-indole]	46	–	–	–
COc1ccc(Cc2noc(-c3cn(CCN4CCOCC4)c4ccccc34)n2)cc1 [Compound 6, 3-[3-(4-Methoxy-benzyl)-[1,2,4]oxadiazol-5-yl]-1-[2-(morpholin-4-yl)ethyl]-1H-indole]	39	200	2800	–
Brc1ccc(Cc2noc(-c3cn(CCN4CCOCC4)c4ccccc34)n2)cc1 [Compound 7, 3-[3-(4-Bromo-benzyl)-[1,2,4]oxadiazol-5-yl]-1-[2-(morpholin-4-yl)ethyl]-1H-indole]	58	–	–	–
CCCCCn1cc(-c2nc(Cc3ccccc3)no2)c2ccccc21 [Compound 8, 3-(3-Benzyl-[1,2,4]oxadiazol-5-yl)-1-pentyl-1H-indole]	100	6	400	–
c1ccc(CCc2noc(-c3cn(CCN4CCOCC4)c4ccccc34)n2)cc1 [Compound 9, 1-[2-(morpholin-4-yl)ethyl]-3-(3-phenethyl-[1,2,4]oxadiazol-5-yl)-1H-indole]	90	–	1200	–
Clc1ccccc1Cc1noc(-c2cn(CCN3CCOCC3)c3ccccc23)n1 [Compound 10, 3-[3-(2-Chlorobenzyl)-[1,2,4]-oxadiazol-5-yl]-1-[2-(morpholin-4-yl)ethyl]-1H-indole]	95	–	–	–
c1ccc(-c2ccc(-c3noc(-c4cn(CCN5CCOCC5)c5ccccc45)n3)cc2)cc1 [Compound 11, 3-[3-(Biphenyl)-[1,2,4]oxadiazole-5-yl]-1-[2-(morpholin-4-yl)ethyl]-1H-indole]	–	> 10000	> 10000	CB1 (MVD) % inh at 1.0 μM (CB1 receptor [1]): 11%
c1ccc2cc(Cc3noc(-c4cn(CCN5CCCC5)c5ccccc45)n3)ccc2c1 [Compound 12, 3-[3-(naphth-2-ylmethyl)-[1,2,4]-oxadiazol-5-yl]-1-[2-(pyrolidin-1-yl)ethyl]-1H-indole]	–	–	–	CB1 (MVD) % inh at 1.0 μM (CB1 receptor [1]): 96%
c1ccc2cc(Cc3noc(-c4cn(CCN5CCOCC5)c5ccccc45)n3)ccc2c1 [Compound 13, 3-[3-(naphth-2-ylmethyl)-[1,2,4]-oxadiazol-5-yl]-1-[2-(morpholin-4-yl)ethyl]-1H-indole]	54	–	–	–
CCOC(=O)CCCCn1cc(-c2nc(Cc3ccc4ccccc4c3)no2)c2ccccc21 [Compound 14, Ethyl 5-([3-(naphth-2-ylmethyl)-[1,2,4]-oxadiazole-5-yl]-1H-indol-1-yl)pentanoate]	–	–	–	CB1 (MVD) % inh at 1.0 μM (CB1 receptor [1]): 42%
O=C(O)CCCCn1cc(-c2nc(Cc3ccc4ccccc4c3)no2)c2ccccc21 [Compound 15, 5-([3-(Naphth-2-ylmethyl)-[1,2,4]-oxadiazole-5-yl]-1H-indol-1-yl)pentanoic acid]	–	–	–	CB1 (MVD) % inh at 1.0 μM (CB1 receptor [1]): 54%
CCOC(=O)CCn1cc(-c2nc(Cc3ccc4ccccc4c3)no2)c2ccccc21 [Compound 16, Ethyl 3-([3-(naphth-2-ylmethyl)-1,2,4-oxadiazol-5-yl]-1H-indol-1-yl)propanoate]	–	–	–	CB1 (MVD) % inh at 1.0 μM (CB1 receptor [1]): 77%
Cc1c(C(=O)c2cccc3ccccc23)c2cccc3c2n1[C@@H](CN1CCOCC1)CO3 [WIN-55212, WIN-55212-2, reference compound]	100	–	–	–
